Common to all, as to assay type: in vivo
In test [1] the test system is GLYCINE MAX(L) MERR. CV. WILLIAMS
Briefly: Postemergence herbicidal evaluation, GLXMAW (Soybean, Williams). More on the design: key to GLXMAW rating / Herbicidal effect rating, GLXMAW / GLXMAW: 0-9 visual rating scale vs untreated control. Summed up: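 Herbicidal injury to Williams soybean was assessed after a postemergence spray of two-week-old seedlings grown in jiffy flats. Compounds were dispersed in an acetone/water (50/50) mixture with 0.5% TWEEN®20 surfactant and applied at 40 psi. After four to five weeks in the greenhouse, stand, vigor, malformation, size and chlorosis were compared against a control on a 0-9 scale, and results from replicate tests were averaged.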

Test [2] has as its system ORYZA SATIVA, L. TEBONNET
Briefly: Postemergence herbicidal evaluation, ORYSAT (Rice, Tebonnet). More on the design: key: 0-9 visual rating scale vs untreated control. A digest of the protocol: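 This postemergence greenhouse test used Oryza sativa cv. Tebonnet seedlings grown about two weeks in jiffy flats. Test material in 50/50 acetone/water with 0.5% TWEEN®20 surfactant was applied through a spray nozzle at 40 psi. Four to five weeks later, stand, vigor, malformation, size, chlorosis and overall appearance were rated 0-9 relative to a control, and repeat tests were averaged.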

In the next test the test system is CHENOPODIUM ALBUM, L. Briefly: Preemergence herbicidal evaluation, CHEAL (Lambsquarters, Common). As to conditions: for CHEAL rating: four to five weeks after treatment; for CHEAL herbicidal rating: rated four to five weeks after treatment. Summed up:
(§1)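 Greenhouse preemergence test; treated soil cups received compound in aqueous acetone (about 0.125 to 0.50 kg/ha) right after sowing and were assessed visually 4-5 weeks later on a 0-9 scale compared with control plants.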

Another test concerns GALIUM APARINE. In words: Preemergence herbicidal evaluation, GALAP (Galium). As to conditions: for GALAP rating: four to five weeks after treatment; for GALAP herbicidal rating: rated four to five weeks after treatment. Summed up:
as §1

For test [3], the system named is ABUTILON THEOPHRASTI, MEDIC. Briefly: Preemergence herbicidal evaluation, ABUTH (Velvetleaf). The conditions noted are these: four to five weeks after treatment. A digest of the protocol:
as §1

The subject of test [4] is TRITICUM AESTIVUM, CV. APOLLO. Briefly: Preemergence herbicidal evaluation, TRZAWO (Wheat, Winter, CV. APOLLO). The conditions noted are these: four to five weeks after treatment. A digest of the protocol:
as §1

Test [5] deals with CYPERUS SEROTINUS, ROTTB. Briefly: Preemergence weed control under flooded paddy conditions, CYPSE (Flatsedge). As to conditions: preemergence weeds, rated three to four weeks after treatment. Summed up: (§2)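 Visual 0-9 score (stand, vigor, malformation, size, chlorosis, appearance vs untreated control) taken 3-4 wk after treatment. Test compounds were added into flood water (1.5-3 cm over silt loam) as 50/50 v/v aqueous/acetone, equivalent to about 0.5-0.063 kg/ha a.i.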

The subject of test [6] is ECHINOCHLOA ORYZOIDES (ARD.)FRITSCH. In words: Preemergence weed control under flooded paddy conditions, ECHORC (Watergrass (Calif.)). As to conditions: for Herbicidal effect rating, ECHORC: preemergence, 3-4 weeks after treatment; for ECHORC: pre-weed. Summed up:
as §2

In a further test the test system is […], PRESL. Briefly: Preemergence weed control under flooded paddy conditions, MOOVA (Monochoria). As to conditions: for Herbicidal effect rating, MOOVA: preemergence, 3-4 weeks after treatment; for MOOVA: pre-weed. A digest of the protocol: as §2

The structures appear in SMILES notation.

On to `COC(=O)Cn1c(=O)n(C)c(=O)n(-c2cc(Oc3c(F)cc(C(F)(F)F)cc3Cl)ccc2F)c1=O` [Compound 4, Methyl 3-{5-[(2-chloro-α,α,α,6-tetrafluoro-p-tolyl)oxy]-2-fluorophenyl}tetrahydro-5-methyl-2,4,6-trioxo-s-triazine-1(2H)-acetate], for which the “Herbicidal effect rating, GLXMAW” value is 5.1 in test [1] (0.031 kg/ha), 5.7 in test [1] (0.063 kg/ha), 6.4 in test [1] (0.125 kg/ha) and 7.3 in test [1] (0.250 kg/ha). The “Herbicidal effect rating, ORYSAT” value in test [2] (0.031 kg/ha) came out at 4.6; in test [2] (0.063 kg/ha) it was 5.0; in [2] (0.125 kg/ha) it was 5.7; in test [2] (0.250 kg/ha) it was 6.4. Besides, the CHEAL rating was 9.0 with CHENOPODIUM ALBUM, L. (Rate 0.125 kg/ha); 9.0 in the test on CHENOPODIUM ALBUM, L. (Rate 0.250 kg/ha); 9.0 with CHENOPODIUM ALBUM, L. (Rate 0.500 kg/ha). In addition, the GALAP rating in the test with GALIUM APARINE (Rate 0.125 kg/ha) is listed as 7.3; with GALIUM APARINE (Rate 0.250 kg/ha), 9.0; with GALIUM APARINE (Rate 0.500 kg/ha), 9.0.

As for `COC(=O)Cn1c(=O)[nH]c(=O)n(-c2cc(Oc3ccc(C(F)(F)F)cc3Cl)ccc2[N+](=O)[O-])c1=O` [Compound 8, Methyl 3-{5-[(2-chloro-α,α,α-trifluoro-p-tolyl)oxy]-2-nitrophenyl}tetrahydro-2,4,6-trioxo-s-triazine-1(2H)-acetate], the ABUTH rating in test [3] (Rate 0.125 kg/ha), in test [3] (Rate 0.250 kg/ha) and in test [3] (Rate 0.500 kg/ha) was 9.0 each time. Besides, the CHEAL rating was found to be 9.0 in the test with CHENOPODIUM ALBUM, L. (Rate 0.125 kg/ha); 9.0 with CHENOPODIUM ALBUM, L. (Rate 0.250 kg/ha); 9.0 with CHENOPODIUM ALBUM, L. (Rate 0.500 kg/ha). Besides, the TRZAWO rating in test [4] (Rate 0.125 kg/ha), in [4] (Rate 0.250 kg/ha) and in test [4] (Rate 0.500 kg/ha) was 3.0 in each case. The CYPSE herbicidal rating in test [5] (Rate 0.063 kg/ha), in test [5] (Rate 0.125 kg/ha) and in test [5] (Rate 0.250 kg/ha) was 0.0 each time.

As to `COC(=O)Cn1c(=O)n(C)c(=O)n(-c2cc(Oc3c(F)cc(C(F)(F)F)cc3Cl)ccc2[N+](=O)[O-])c1=O` [Compound 16, Methyl 3-{5-[(2-chloro-α,α,α,6-tetrafluoro-p-tolyl)oxy]-2-nitrophenyl}tetrahydro-5-methyl-2,4,6-trioxo-s-triazine-1(2H)-acetate], the GLXMAW in test [1] (Rate 0.008 kg/ha) is 3.3; in test [1] (Rate 0.016 kg/ha) it was 3.8; in test [1] (Rate 0.031 kg/ha), 4.6; in test [1] (Rate 0.063 kg/ha) it was 5.1; in test [1] (Rate 0.125 kg/ha), 5.6. The ORYSAT was determined as 4.0 in test [2] (Rate 0.008 kg/ha); 6.0 in test [2] (Rate 0.016 kg/ha); 5.3 in test [2] (Rate 0.031 kg/ha); 5.3 in test [2] (Rate 0.063 kg/ha); 5.8 in test [2] (Rate 0.125 kg/ha). The CHEAL in the test on CHENOPODIUM ALBUM, L. (Rate 0.031 kg/ha) was 9.0; in the test on CHENOPODIUM ALBUM, L. (Rate 0.063 kg/ha), 9.0; in the test with CHENOPODIUM ALBUM, L. (Rate 0.125 kg/ha) it was 9.0; in the test with CHENOPODIUM ALBUM, L. (Rate 0.250 kg/ha), 9.0. Besides, the CHEAL herbicidal rating in the test with CHENOPODIUM ALBUM, L. (Rate 0.125 kg/ha) is 9.0; with CHENOPODIUM ALBUM, L. (Rate 0.250 kg/ha), 9.0; in the test with CHENOPODIUM ALBUM, L. (Rate 0.500 kg/ha), 9.0. Also, the GALAP with GALIUM APARINE (Rate 0.031 kg/ha), in the test on GALIUM APARINE (Rate 0.063 kg/ha), with GALIUM APARINE (Rate 0.125 kg/ha) and in the test on GALIUM APARINE (Rate 0.250 kg/ha) was 9.0 each time. For the same compound, the GALAP herbicidal rating in the test with GALIUM APARINE (Rate 0.125 kg/ha), in the test with GALIUM APARINE (Rate 0.250 kg/ha) and in the test with GALIUM APARINE (Rate 0.500 kg/ha) was 9.0 throughout. Moreover, the “Herbicidal effect rating, ECHORC” value in [6] (0.063 kg/ha), in test [6] (0.125 kg/ha), in test [6] (0.250 kg/ha) and in test [6] (0.500 kg/ha) was 9.0 in each case. Further, the ECHORC in [6] (Rate 0.031 kg/ha), in test [6] (Rate 0.063 kg/ha), in test [6] (Rate 0.125 kg/ha) and in [6] (Rate 0.250 kg/ha) was 9.0 in each case. Also, the “Herbicidal effect rating, MOOVA” value in test […], PRESL. (0.063 kg/ha) is 9.0; in […], PRESL. (0.125 kg/ha) it was 9.0; in test […], PRESL. (0.250 kg/ha), 9.0; in test […], PRESL. (0.500 kg/ha), 9.0. The MOOVA in […], PRESL. (Rate 0.031 kg/ha) is listed as 9.0; in […], PRESL. (Rate 0.063 kg/ha) it was 9.0; in […], PRESL. (Rate 0.125 kg/ha) it was 9.0; in […], PRESL. (Rate 0.250 kg/ha), 9.0.

The values above are taken from patent EP0745595A1, “3-(3-Aryloxyphenyl)-1-(substituted methyl)-s-triazine-2,4,6-oxo or thiotrione herbicidal agents” (American Cyanamid Company, priority 1995, dated 1996).
